Test results taken from patent US20200369728A1, “PEPTIDOMIMETIC MACROCYCLES AND USES THEREOF” (Aileron Therapeutics, Inc., priority 2015, published 2020).
Bridge positions count the residues as written; N and C are the ends. Square brackets hold non-standard residues; d marks the D form. Peptide text beside a SMILES is read from it. Phe(4-COOH) = N[C@@H](Cc1ccc(C(=O)O)cc1)C(=O)O; R8 = C=CCCCCCC[C@@](C)(N)C(=O)O; Cba = N[C@@H](CC1CCC1)C(=O)O; hLeu = CC(C)CC[C@H](N)C(=O)O; S5 = C=CCCC[C@](C)(N)C(=O)O

What was measured:
Caspase 3 = Caspase 3 detection assay in SJSA1 cells; type: cell-based; conditions: SJSA1, 48 h, Caspase 3 activation over DMSO-treated cells
SJSA-1 cells = assay: Cell lysis by peptidomimetic macrocycles (LDH release); type: cell-based; conditions: SJSA-1, 1 h
In short: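 SJSA-1 cells plated the day before, switched to RPMI with 1% FBS, then exposed 1 h at 37 °C to macrocycle at final 50 μM to 6.25 μM in 0.5% DMSO. LDH released into the supernatant was measured by kit. Controls: 0.5% DMSO (non-lytic), 10 μM melittin and 1% Triton X-100 (lytic).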

RKO = assay: Cell viability assay (MTT), RKO; conditions: read-out: RKO EC50 (72 h)

SMILES	caspase 0.3 μM (Caspase 3)	caspase 3 μM (Caspase 3)	caspase 10 μM (Caspase 3)	caspase 30 μM (Caspase 3)	6.25 μM % Lysed cells (1 h LDH) (SJSA-1 cells)	25 μM % Lysed cells (1 h LDH) (SJSA-1 cells)	50 μM % Lysed cells (1 h LDH) (SJSA-1 cells)	EC50 (RKO)	caspase 1 μM (Caspase 3)
CC(=O)N[C@@H](CC(C)C)C(=O)N[C@H](C(=O)N[C@@H](Cc1ccccc1)C(=O)N[C@]1(C)CCCCCC/C=C/CCC[C@@](C)(C(=O)N[C@@H](CO)C(=O)N[C@@H](C)C(=O)N[C@@H](C)C(N)=O)NC(=O)[C@H](CCC(C)C)NC(=O)[C@H](CCC(N)=O)NC(=O)[C@H](C)NC(=O)[C@H](Cc2c[nH]c3ccccc23)NC(=O)[C@H](Cc2ccc(O)cc2)NC(=O)[C@H](C)NC1=O)[C@@H](C)O [compound 115] (Ac-LTF[R8]AYWAQ[hLeu][S5]SAA-NH2; staple (E) 4-11)	1	10	26	32	0%	−1%	6%	5 to 15 µM	
CC(=O)N[C@@H](CC(C)C)C(=O)N[C@H](C(=O)N[C@@H](Cc1ccccc1)C(=O)N[C@]1(C)CCCCCC/C=C/CCC[C@@](C)(C(=O)N[C@@H](C)C(=O)N[C@@H](C)C(=O)N[C@@H](C)C(=O)N[C@@H](C)C(=O)N[C@@H](C)C(=O)N[C@H](C)C(N)=O)NC(=O)[C@H](CC2CCC2)NC(=O)[C@H](CCC(N)=O)NC(=O)[C@H](CO)NC(=O)[C@H](Cc2c[nH]c3ccccc23)NC(=O)[C@H](Cc2ccc(O)cc2)NC(=O)[C@H](CCC(=O)O)NC1=O)[C@@H](C)O [compound 351]	3	13	15	24	0%	0%	0%	5 to 15 µM	9
CC(=O)N[C@@H](CC(C)C)C(=O)N[C@H](C(=O)N[C@@H](Cc1ccccc1)C(=O)N[C@]1(C)CCCCCCC=CCCC[C@@](C)(C(=O)N[C@@H](CO)C(=O)N[C@H](C(=O)N[C@@H](CO)C(N)=O)C(C)C)NC(=O)[C@H](CC(C)C)NC(=O)[C@H](CCC(N)=O)NC(=O)[C@H](C)NC(=O)[C@H](Cc2c[nH]c3ccccc23)NC(=O)[C@H](Cc2ccc(O)cc2)NC(=O)[C@H](C)NC1=O)[C@@H](C)O [compound 121] (Ac-LTF[R8]AYWAQL[S5]SVS-NH2; staple 4-11)	1	5	19	30	1%	1%	7%	< 5 µM	
CC(=O)N[C@@H](C)C(=O)N[C@@H](C)C(=O)N[C@@H](CC(C)C)C(=O)N[C@H](C(=O)N[C@@H](Cc1ccccc1)C(=O)N[C@]1(C)CCCCCCC=CCCC[C@@](C)(C(=O)N[C@@H](CO)C(=O)N[C@@H](C)C(=O)N[C@@H](C)C(=O)N[C@@H](C)C(=O)N[C@H](C)C(N)=O)NC(=O)[C@H](CC2CCC2)NC(=O)[C@H](CCC(N)=O)NC(=O)[C@H](C)NC(=O)[C@H](Cc2c[nH]c3ccccc23)NC(=O)[C@H](Cc2ccc(O)cc2)NC(=O)[C@H](CCC(=O)O)NC1=O)[C@@H](C)O (single isomer, unassigned) [compound 359]	3	11	13	23	0%	0%	0%	15 to 30 µM	9
CC(=O)N[C@@H](CC(C)C)C(=O)N[C@H](C(=O)N[C@@H](Cc1ccc(F)c(F)c1)C(=O)N[C@]1(C)CCCCCCC=CCCC[C@@](C)(C(=O)N[C@@H](CO)C(=O)N[C@@H](C)C(=O)N[C@@H](C)C(N)=O)NC(=O)[C@H](CC(C)C)NC(=O)[C@H](CCC(N)=O)NC(=O)[C@H](C)NC(=O)[C@H](Cc2c[nH]c3ccccc23)NC(=O)[C@H](Cc2ccc(O)cc2)NC(=O)[C@H](CCC(=O)O)NC1=O)[C@@H](C)O (single isomer, unassigned) [compound 158]	1	1.67	5	16.33	0%	−2%		> 30 µM	
CC(=O)N[C@@H](CC(C)C)C(=O)N[C@H](C(=O)N[C@@H](Cc1ccccc1)C(=O)N[C@]1(C)CCCCCC/C=C/CCC[C@@](C)(C(=O)N[C@@H](C)C(=O)N[C@@H](C)C(=O)N[C@@H](C)C(=O)N[C@@H](C)C(=O)N[C@@H](C)C(=O)N[C@H](C)C(N)=O)NC(=O)[C@H](CC2CCC2)NC(=O)[C@H](CCC(N)=O)NC(=O)[C@H](C)NC(=O)[C@H](Cc2c[nH]c3ccccc23)NC(=O)[C@H](Cc2ccc(C(=O)O)cc2)NC(=O)[C@H](CCC(=O)O)NC1=O)[C@@H](C)O [compound 349]	1	11	16	24	0%	0%	0%	5 to 15 µM	8
CC(=O)N[C@@H](CC(C)C)C(=O)N[C@H](C(=O)N[C@@H](Cc1ccccc1)C(=O)N[C@]1(C)CCCCCCC=CCCC[C@@](C)(C(=O)N[C@@H](CO)C(=O)N[C@@H](C)C(=O)N[C@@H](C)C(N)=O)NC(=O)[C@H](CC2CCCCC2)NC(=O)[C@H](CCC(N)=O)NC(=O)[C@H](C)NC(=O)[C@H](Cc2c[nH]c3ccccc23)NC(=O)[C@H](Cc2ccc(O)cc2)NC(=O)[C@H](CCC(=O)O)NC1=O)[C@@H](C)O (single isomer, unassigned) [compound 148]	1	11	23	31	0%	−1%	0%	15 to 30 µM	
CC(=O)N[C@@H](CC(C)C)C(=O)N[C@H](C(=O)N[C@@H](Cc1ccccc1)C(=O)N[C@]1(C)CCCCCCC=CCCC[C@@](C)(C(=O)N[C@@H](CO)C(=O)N[C@@H](C)C(=O)N[C@@H](CO)C(N)=O)NC(=O)[C@H](CC(C)C)NC(=O)[C@H](CCC(N)=O)NC(=O)[C@H](C)NC(=O)[C@H](Cc2c[nH]c3ccccc23)NC(=O)[C@H](Cc2ccc(O)cc2)NC(=O)[C@H](C)NC1=O)[C@@H](C)O [compound 122] (Ac-LTF[R8]AYWAQL[S5]SAS-NH2; staple 4-11)	1	2	15	30	1%	0%	6%	5 to 15 µM	
CC[C@H](C)[C@H](NC(=O)[C@H](C)NC(=O)[C@H](C)NC(=O)[C@]1(C)CCC/C=C/CCCCCC[C@@](C)(NC(=O)[C@H](Cc2ccccc2)NC(=O)[C@@H](NC(=O)[C@H](CC(C)C)NC(C)=O)[C@@H](C)O)C(=O)N[C@@H](CCC(=O)O)C(=O)N[C@@H](Cc2ccc(C(=O)O)cc2)C(=O)N[C@@H](Cc2c[nH]c3ccccc23)C(=O)N[C@@H](C)C(=O)N[C@@H](CCC(N)=O)C(=O)N[C@@H](CC2CCC2)C(=O)N1)C(=O)N[C@H](C)C(N)=O [compound 249] (Ac-LTF[R8]E[Phe(4-COOH)]WAQ[Cba][S5]AAI[dA]-NH2; staple (E) 4-11)	2	5	11	23	0%	0%	0%	< 5 µM	
CC(=O)N[C@@H](CCC(=O)O)C(=O)N[C@H](C(=O)N[C@@H](Cc1ccccc1)C(=O)N[C@]1(C)CCCCCCC=CCCC[C@@](C)(C(=O)N[C@@H](CO)C(=O)N[C@@H](C)C(=O)N[C@@H](C)C(N)=O)NC(=O)[C@H](CC(C)C)NC(=O)[C@H](CCC(N)=O)NC(=O)[C@H](C)NC(=O)[C@H](Cc2c[nH]c3ccccc23)NC(=O)[C@H](Cc2ccc(O)cc2)NC(=O)[C@H](C(C)C)NC1=O)[C@@H](C)O [compound 125] (Ac-ETF[R8]VYWAQL[S5]SAA-NH2; staple 4-11)	1	3	9	29	0%	0%	2%	5 to 15 µM	
